The text below walks through data of patent publication US20200399392A1, “INHIBITORS OF PLA2-G1B COFACTORS FOR TREATING CANCER” (priority 2018, published 2020).

One assay deals with PLA2-GIB. The assay can be described thus: PLA2-GIB enzymatic assay on [3H] arachidonic acid labelled Jurkat E6.1 T cells. In kind it is cell-based, human. The procedure: Jurkat E6.1 T cells (ECACC 88042803) or gC1qR KO Jurkat E6.1 T cells were incubated for 17 h at 5×10^5 cells/ml with 1 μCi/ml of arachidonic acid [5,6,8,9,11,14,15-^3H(N)] (Perkin Elmer, NET298Z250UC) in RPMI 1640 medium (Lonza) supplemented with 10% FBS, 50 mM HEPES pH 7.4, glutamine, penicillin, streptomycin and fungizone at 2 ml/well in 6-well plates at 37° C. in a 5% CO2 humidified atmosphere. Cells were washed twice with RPMI with 10% FBS by centrifugation at 300×g for 10 minutes at room temperature and then frozen in 90% FBS 10% DMSO at 10^7 cells/ml/vial at −80° C. Percent of [3H] arachidonic acid in CD4 T cells is the (1 minus ratio of [3H] arachidonic acid in the supernatant of CD4 T cells without cells (cpm/ml) on total [3H] arachidonic acid in supernatant and cells (cpm/ml).
To test PLA2-GIB activity on [3H] arachidonic acid labelled Jurkat E6.1 T lymphocytes, cells were unfrozen in 10% FBS RPMI preheated at 37° C. by centrifugation at 300×g for 10 minutes at room temperature, washed twice in 2.5% FBS RPMI, and equilibrated at 5×10^4 or 10^5 Jurkat E6.1 T cells/400 μl/well in 24-well polystyrene plates for 1 h30 at 37° C. in a 5% CO2 humidified atmosphere. Then HCV core solution or vehicle dilution in 2.5% FBS RPMI at 5.95 μM was mixed with an equal volume of a PLA2GIB solution at 630 nM or 2 μM 2.5% FBS RPMI and 100 μl were added per well at the same time for 2 h. For peptide treatments, cells were pretreated for 2 h, 4 h or 21 h, as indicated on figures, with 50 μl per well of peptide solutions at 110 μM or 55 μM in 2.5% FBS RPMI. Then 50 μl per well of PLA2-GIB at 630 nM or 2 μM 2.5% FBS RPMI or medium alone were added for 2 h. Cells and supernatant were collected in eppendorf tubes and centrifuged at 580×g for 10 minutes at room temperature. The [3H] arachidonic acid released in cell supernatant was quantified in 300 μl with 16 ml of Ultima gold (Perkin Elmer, 6013329) in low diffusion vials (Perkin Elmer, 6000477) on a counter (tri-Carb 2800 TR liquid scintillation analyzer, Perkin Elmer).

The test system of a further assay is pSTAT5 NT in CD4 T cells. As to the kind of experiment: PLA2-GIB bioassay on CD4 T cells: pSTAT5 nuclear translocation in response to IL-7, confocal microscopy. In kind it is cell-based, human. The text has this:
Purification of Human CD4 T-lymphocytes—Venous blood was obtained from healthy volunteers through the EFS (Etablissement Français du Sang, Centre Necker-Cabanel, Paris). CD4 T-cells were purified from whole blood using RosetteSep Human CD4+ T cell Enrichment Cocktail (Stem Cell, 15062). This cocktail contains mouse and rat monoclonal antibodies purified from mouse ascites fluid or hybridoma culture supernatant, by affinity chromatography using protein A or Protein G sepharose. These antibodies are bound in bispecific tetrameric antibody complexes which are directed against cell surface antigens on human hematopoietic cells (CD8, CD16, CD19, CD36, CD56 CD66b, TCRγ/δ) and glycophorin A on red blood cells. The rosetteSep antibody cocktail crosslinks unwanted cells in human whole blood to multiple red blood cells, forming immunorosettes. This increases the density of unwanted cells, such that they pellet along with the free red blood cells when centrifuged over a buoyant density medium such as lymphocytes separation medium (Eurobio, CMSMSL01-01).
Whole blood was incubated with RosetteSep Human CD4+ T cell Enrichment Cocktail at 50 μl/ml for 20 minutes at room temperature under gentle shaking (100 rpm), diluted with an equal volume of PBS+2% foetal bovine serum (FBS) and mixed gently. The diluted samples were centrifuged 20 minutes at 1200×g on top of lymphocytes separation medium. The enriched cells were then collected from the density medium at plasma interface and washed twice with PBS+2% FBS. Cells were subsequently resuspended in RPMI 1640 medium (Lonza) supplemented with 5% FBS, 50 mM HEPES pH 7.4, glutamine, penicillin, streptomycin and fungizone (complete medium), counted with a Moxi Z mini automated cell counter (ORFLO, MXZ000). Cells suspension was adjusted at 7×10^6 cells/ml and equilibrated at least 2 h at 37° C. in a 5% CO2 humidified atmosphere.
The enriched CD4-T cell population was controlled by flow cytometry on a cytoflex (Beckman coulter). The quiescence of recovered CD4 T-cells was controlled by the low level of IL-2Rα (CD25).

For the substance “NH2-PWNASWSNKSLDDIW—COOH (H-PWNASWSNKSLDDIW-OH) [PEP3]”, in the assay on PLA2-GIB (Jurkat E6.1 WT cells, pretreatment 21 h, FIG. 13), the “PLA2-GIB activity vs scrambled PEP3” value was “increased significantly”. In the assay with PLA2-GIB (pretreatment 4 h or more with peptide 11 μM, 200 nM PLA2-GIB, FIG. 11), the “PLA2-GIB activity on the membrane of Jurkat E6.1 T cells vs scrambled PEP3” value is listed as “significantly increased”. The “inhibition of pSTAT5 NT” value with pSTAT5 NT in CD4 T cells (0.025 μg/ml of PEP3 with 5 nM of PLA2-GIB, FIG. 5B) turned out to be 18%; in the assay on pSTAT5 NT in CD4 T cells (0.5 μg/ml of PEP3 alone, n=3 donors, FIG. 5C) it was 5%. In addition, in the assay on pSTAT5 NT in CD4 T cells (peptide alone, without PLA2-GIB, FIG. 5B), the “effect on pSTAT5 NT” value is listed as “no effect”.
